From patent US9657351B2, “MRNA-based gene expression for personalizing patient cancer therapy with an MDM2 antagonist” (Hoffmann-La Roche Inc., priority 2013, dated 2017)

Experiments:
Test in all cases: COMPOUND A In Vitro Assay
Assay type in all cases: cell-based
[1] = system: L-363; details: Homo sapiens, Lymphocyte, peripheral blood, TP53 Mutant
How it was run: (§1)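 Screening format: high throughput. Agent: RG7112 (MDM2 antagonist). Cells: diverse human cancer lines. Derived value: IC50, with the cut-offs sensitive <=1 and resistant >=10.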

[2] = system: HARA-B; details: Homo sapiens, Lung, TP53 Mutant
How it was run: as §1

[3] = system: AGS; details: Homo sapiens
How it was run: as §1

[4] = system: HCC1395; details: Homo sapiens, Breast, mammary gland, TP53 Mutant
How it was run: as §1

[5] = system: LS 174T; details: Homo sapiens, LS174T
How it was run: as §1

[6] = system: IMR-32; details: Homo sapiens
How it was run: as §1

[7] = system: Kasumi-1; details: Homo sapiens, Lymphocyte, peripheral blood, TP53 Mutant
How it was run: as §1

[8] = system: U-118 MG; details: Homo sapiens, Brain, TP53 Mutant
How it was run: as §1

[9] = system: NCI-H748; details: Homo sapiens, Lung, TP53 Mutant
How it was run: as §1

[10] = system: SW480; details: Homo sapiens, Intestine, large, colon, TP53 Mutant
How it was run: as §1

[11] = system: U-698-M; details: Homo sapiens, Tonsil, TP53 Mutant
How it was run: as §1

[12] = system: NCI-H1650; details: Homo sapiens, Lung, TP53 Mutant
How it was run: as §1

[13] = system: COLO 201; details: Homo sapiens, Intestine, large, colon, TP53 Mutant
How it was run: as §1

[14] = system: AN3 CA; details: Homo sapiens, Uterus, endometrium, TP53 Mutant
How it was run: as §1

[15] = system: NCI-H1975; details: Homo sapiens, Lung, TP53 Mutant
How it was run: as §1

[16] = system: NCI-H508; details: Homo sapiens, Intestine, large, caecum, TP53 Mutant
How it was run: as §1

[17] = system: NCI-H441; details: Homo sapiens, Lung, TP53 Mutant
How it was run: as §1

[18] = system: SK-MES-1; details: Homo sapiens, Lung, TP53 Mutant
How it was run: as §1

[19] = system: TT; details: Homo sapiens, Thyroid gland, TP53 Wild type
How it was run: as §1

[20] = system: SK-HEP-1; details: Homo sapiens
How it was run: as §1

[21] = system: HEC-151; details: Homo sapiens, Uterus, TP53 Mutant
How it was run: as §1

[22] = system: HuH-28; details: Homo sapiens, Gall bladder, TP53 Mutant
How it was run: as §1

[23] = system: Detroit 562; details: Homo sapiens, Pharynx, TP53 Mutant
How it was run: as §1

[24] = system: ZR-75-1; details: Homo sapiens
How it was run: as §1

[25] = system: NCI-H146; details: Homo sapiens, Lung, TP53 Mutant
How it was run: as §1

[26] = system: HCC1806; details: Homo sapiens, Breast, mammary gland, TP53 Mutant
How it was run: as §1

[27] = system: SR; details: Homo sapiens, Lymphocyte, TP53 Wild type
How it was run: as §1

[28] = system: AsPC-1; details: Homo sapiens, ASPC1, Pancreas, TP53 Mutant
How it was run: as §1

[29] = system: SUM52PE; details: Homo sapiens, Breast, TP53 Wild type
How it was run: as §1

[30] = system: NKM-1; details: Homo sapiens
How it was run: as §1

[31] = system: DMS 114; details: Homo sapiens, Lung, TP53 Mutant
How it was run: as §1

[32] = system: T98G; details: Homo sapiens, Brain, TP53 Mutant
How it was run: as §1

[33] = system: 5637; details: Homo sapiens, Urinary, bladder, TP53 Mutant
How it was run: as §1

[34] = system: COLO-704; details: Homo sapiens, Ovary, TP53 Wild type
How it was run: as §1

[35] = system: HCC366; details: Homo sapiens, Lung, TP53 Mutant
How it was run: as §1

[36] = system: C-33 A; details: Homo sapiens, Cervix, TP53 Mutant
How it was run: as §1

[37] = system: PC-10; details: Homo sapiens, PC10, Lung, TP53 Mutant
How it was run: as §1

In the case of `CCOc1cc(C(C)(C)C)ccc1C1=N[C@@](C)(c2ccc(Cl)cc2)[C@@](C)(c2ccc(Cl)cc2)N1C(=O)N1CCN(CCCS(C)(=O)=O)CC1` [COMPOUND A], the IC50 [1] is reported as 32 µM, the IC50 [2] is reported as 10 µM and the IC50 ([3]; AGS cells) is reported as 0.1 µM. For the same compound, the IC50 ([3]; Stomach, TP53 Wild type) was 0.13 µM, the IC50 [4] was 20 µM and the IC50 ([5]; LS 174T cells) was 0.6 µM. For the same compound, the IC50 ([5]; LS 174T, Intestine, large, colon, TP53 Wild type) was 0.59 µM, the IC50 ([6]; IMR-32, IMR-32, Brain, TP53 Wild type) was 0.43 µM and the IC50 ([6]; IMR-32, IMR-32 cells) was 0.4 µM. For the same compound, the IC50 [7] was 21 µM, the IC50 [8] was 19 µM and the IC50 [9] was 16 µM. It also gave an IC50 [10] of 12 µM, an IC50 [11] of 9.8 µM and an IC50 [12] of 10 µM. The IC50 [13] was 10 µM, the IC50 [14] was 18 µM and the IC50 [15] was 16 µM. The IC50 [16] was 1.2 µM, the IC50 [17] was 10 µM and the IC50 [18] was 6 µM. For the same compound, the IC50 [19] was 2 µM, the IC50 ([20]; SK-HEP1, SK-HEP-1, Liver, TP53 Wild type) was 0.22 µM and the IC50 ([20]; SK-HEP1, SK-HEP-1 cells) was 0.2 µM. It also gave an IC50 [21] of 2.2 µM, an IC50 [22] of 15 µM and an IC50 [23] of 6.2 µM. It also gave an IC50 ([24]; ZR-75-1, ZR-75-1, Breast, mammary gland, TP53 Wild type) of 0.076 µM, an IC50 ([24]; ZR-75-1, ZR-75-1 cells) of 0.1 µM and an IC50 [25] of 8.3 µM. For the same compound, the IC50 [26] was 11 µM, the IC50 [27] was 0.043 µM and the IC50 [28] was 19 µM. For the same compound, the IC50 [29] was 8.7 µM, the IC50 ([30]; NKM-1, Lymphocyte, TP53 Wild type) was 0.32 µM and the IC50 ([30]; NKM-1 cells) was 0.3 µM. The IC50 [31] was 10 µM, the IC50 [32] was 8.3 µM and the IC50 [33] was 8.5 µM. It also gave an IC50 [34] of 20 µM, an IC50 [35] of 8.7 µM and an IC50 [36] of 18 µM. For the same compound, the IC50 [37] was 14 µM.
